From publication PMC12006963, “Application of Deuterium in an M1 Positive Allosteric Modulator Back-Up Program: The Discovery of VU6045422” (ACS Chemical Neuroscience, 2025)

Columns and labels:
Format in all cases: in vitro ADME
[1] = Hepatocyte metabolite identification (human); conditions: human hepatocytes, 4 h incubation
Method: Prior to full characterization of deuterated analogues 3 and 5, they were incubated in rat, dog, monkey, and human hepatocytes, along with 1, to determine the amount of parent remaining, as well as the degree of undesired oxidative metabolites 2, 4, and 6 (Figure 2). […] For the gem-dideutero congener 3, metabolic stability was improved in vitro. […] Thus, in hepatocytes in vitro, the kinetic isotope effect engendered greater metabolic stability of the labile hot spot on the lactam. It remained to be seen if this effect would translate in vivo, but we first had to assess the impact of the deuterated analogues on molecular pharmacology, in vitro DMPK, standard low-dose in vivo DMPK and, if warranted, in vivo efficacy in a rat novel object recognition (NOR) behavioral assay.

[2] = Plasma protein binding, equilibrium dialysis (cyno); conditions: cynomolgus monkey, pH 7.4, read-out: fu,plasma
Method: page 5: Drug Metabolism Methods: In vitro Plasma protein binding and Brain homogenate binding: Determination of fraction unbound (f u) in plasma was conducted in vitro via equilibrium dialysis using HTDialysis (HTD) membrane plates. The top half of the plate was filled with 100 uL of Dubelco’s Phosphate Buffered Saline, pH 7.4 (DPBS). Compounds were diluted into plasma from each species (5 µM final concentration), which was aliquoted in triplicate to the ‘bottom half’ of the prepared HTD plate wells. The HTD plate was sealed and incubated for 6 hours at 37 °C. Following incubation, each well (both top and bottom halves) were transferred (20 µL) to the corresponding wells of a 96- shallow-well (V-bottom) plate. The daughter plates were then matrix-matched (DPBS side wells received equal volume of plasma, and plasma side wells received equal volume of DPBS), and extraction solution (120 µL; acetonitrile containing 50 nM carbamazepine as IS) was added to all wells of both daughter plates to precipitate protein and extract test article. The plates were then sealed and centrifuged (3500 rcf) for 10 minutes at ambient temperature. Supernatant (60 µL) from each well of the daughter plates was then transferred to the corresponding wells of new daughter plates (96-shallow-well, V bottom) containing water (Milli-Q, 60 µL/well), and the plates were sealed in preparation for LC-MS/MS analysis (see LC-MS/MS analysis method below). The unbound fraction (f u) was calculated following the equation below, and mean values for each species were calculated from 3 replicates. […] Fraction unbound for both plasma and brain samples was determined using Equation 4. f = Concbuffer u Concplasma Equation 4 Determination of fraction unbound in plasma. […]

P-gp (MDR1) = target: T1, P-gp (MDR1) (Homo sapiens, UniProt P08183); assay: MDCK-MDR1 monolayer permeability and efflux; set-up: dose or concentration left out as unconfirmed; conditions: dog; for Papp at 2 h: MDCK-MDR1; for efflux ratio at 2 h: MDCK-MDR1 efflux ratio, read-out: P-gp ER
T1 construct: host or cells: MDR1-MDCK cell monolayers
Method: page 9: Brain plasma concentration ratio (Kp) was calculated by dividing brain concentration by plasma concentration for each animal. Unbound brain to unbound plasma concentration ratio (Kp,uu) is calculated using the following formula: Kp,uu = (Brain ng/g x brain fu)/(plasma ng/ml x plasma fu). Pharmacokinetic profiles in rats following oral single escalating doses Single escalating oral dosing in Sprague-Dawley rats was performed at Frontage Laboratories according to their non-GLP Standard Operating Procedure and IACUC protocols. In short, compounds were formulated in 10% Tween 80 in water and dosed at 10 mg/kg. At different times, arterial blood was collected from a femoral artery catheter, and compound concentration was determined in plasma by LC-MS/MS following their non-GLP protocol. PK parameters were determined using Phoenix WinNonlin software (version 6.3). In-vitro determination of blood-brain barrier penetration potential Blood-brain barrier penetration was determined using MDR1-MDCK cell monolayers by Absorption Systems, following their protocol. In short, compounds were incubated […] final concentration on one side of the cell monolayer for 2 hours. Compounds concentration on either side of the monolayer was determined by LC-MS/MS and apparent permeability and efflux ratio were determined as described in Wang, Q. et al.1 Behavioral Manifestations of Seizure Activity To evaluate induction of behavioral manifestation of seizure activity, C57Bl/6 mice received administration of vehicle or 100 mg/kg M1 PAM 5. Compound was formulated in 30% Captisol (pH 7.0) at a concentration of 10 mg/mL and injected i.p. at 10 ml/kg (n = 4). Animals were monitored continuously and scored for behavioral manifestations of seizure activity at 5, 15, 30 min, and 1 h. Behavioral manifestations of seizures were scored using a modified Racine scoring system. Briefly, a score of 0 represents no behavior alterations; score 1, immobility, mouth and facial movements, or facial clonus; score 2, head nodding, tail extension; score 3, forelimb clonus, repetitive movements; score 4, rearing and tonic clonic seizure; and score 5, continuous rearing and falling, severe generalized tonic clonic seizure. Novel Object Recognition Task S9

CYP 2C9 = CYP 2C9 (Homo sapiens, UniProt P11712); assay: CYP inhibition 2C9
Text: Table 1 Pharmacology and In Vitro DMPK Profiles of M1 PAMs 1, 3, and 5 | column: 1; 3; 5

[3] = Predicted hepatic clearance, hepatic microsomes (cyno)

T1 sequence (P08183 whole entry): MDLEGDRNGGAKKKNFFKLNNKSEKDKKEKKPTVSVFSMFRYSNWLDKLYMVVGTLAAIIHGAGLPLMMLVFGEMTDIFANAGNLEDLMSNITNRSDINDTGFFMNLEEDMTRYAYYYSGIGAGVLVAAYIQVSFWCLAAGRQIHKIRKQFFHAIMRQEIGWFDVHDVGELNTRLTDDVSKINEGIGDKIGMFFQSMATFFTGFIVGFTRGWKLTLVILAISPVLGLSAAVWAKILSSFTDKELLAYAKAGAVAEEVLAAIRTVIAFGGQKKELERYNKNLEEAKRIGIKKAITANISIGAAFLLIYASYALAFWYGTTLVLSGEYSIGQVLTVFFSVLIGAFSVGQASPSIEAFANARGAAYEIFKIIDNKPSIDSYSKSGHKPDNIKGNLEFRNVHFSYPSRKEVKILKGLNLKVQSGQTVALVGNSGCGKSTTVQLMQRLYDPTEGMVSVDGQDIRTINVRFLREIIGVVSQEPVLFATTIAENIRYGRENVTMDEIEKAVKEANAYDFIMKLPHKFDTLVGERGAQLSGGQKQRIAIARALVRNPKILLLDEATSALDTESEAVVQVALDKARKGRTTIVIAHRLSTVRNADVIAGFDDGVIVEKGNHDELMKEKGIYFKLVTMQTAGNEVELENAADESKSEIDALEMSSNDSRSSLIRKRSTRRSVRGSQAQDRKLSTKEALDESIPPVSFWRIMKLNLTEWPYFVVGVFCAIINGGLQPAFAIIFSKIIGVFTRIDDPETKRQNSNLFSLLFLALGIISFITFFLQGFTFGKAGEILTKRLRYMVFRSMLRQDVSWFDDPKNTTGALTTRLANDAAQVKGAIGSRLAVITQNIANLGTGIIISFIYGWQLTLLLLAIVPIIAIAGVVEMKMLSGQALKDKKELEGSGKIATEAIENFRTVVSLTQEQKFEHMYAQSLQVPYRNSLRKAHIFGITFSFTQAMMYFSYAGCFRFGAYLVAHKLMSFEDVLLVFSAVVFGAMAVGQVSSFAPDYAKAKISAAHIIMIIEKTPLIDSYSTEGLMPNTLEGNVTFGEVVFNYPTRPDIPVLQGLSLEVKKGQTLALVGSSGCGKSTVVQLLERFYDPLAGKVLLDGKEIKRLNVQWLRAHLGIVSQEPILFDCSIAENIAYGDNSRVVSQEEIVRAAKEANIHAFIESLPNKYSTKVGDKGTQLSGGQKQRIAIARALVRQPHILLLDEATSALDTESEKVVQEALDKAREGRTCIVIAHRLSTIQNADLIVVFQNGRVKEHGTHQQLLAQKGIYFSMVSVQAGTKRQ
CYP 2C9, sequence (P11712 whole entry): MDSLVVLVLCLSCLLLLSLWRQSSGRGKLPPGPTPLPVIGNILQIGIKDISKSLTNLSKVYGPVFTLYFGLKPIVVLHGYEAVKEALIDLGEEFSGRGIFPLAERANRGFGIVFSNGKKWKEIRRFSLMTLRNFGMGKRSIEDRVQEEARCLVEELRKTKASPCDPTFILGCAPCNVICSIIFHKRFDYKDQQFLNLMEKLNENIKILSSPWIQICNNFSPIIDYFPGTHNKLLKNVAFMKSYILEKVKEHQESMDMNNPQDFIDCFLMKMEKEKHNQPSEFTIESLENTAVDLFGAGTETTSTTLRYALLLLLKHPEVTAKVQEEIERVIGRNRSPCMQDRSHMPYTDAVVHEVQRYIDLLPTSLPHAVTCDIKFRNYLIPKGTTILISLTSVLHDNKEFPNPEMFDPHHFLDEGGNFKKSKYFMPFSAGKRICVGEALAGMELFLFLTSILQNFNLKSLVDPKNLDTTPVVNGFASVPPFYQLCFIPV

SMILES	% Total Peak Area, parent remaining [1] [%]	fraction unbound at 6 h, 5 µM [2]	Papp at 2 h (P-gp (MDR1)) [×10⁻⁶ cm/s]	efflux ratio at 2 h (P-gp (MDR1))	IC50 (CYP 2C9) [µM]	Predicted CLhep [3] [mL/min/kg]
Cn1cc2c(-c3cc(F)c(CN4Cc5ncccc5C4=O)c(F)c3)cccc2n1 [compound 1]	65.1	0.059	31.1	1.8	> 30	5.6
[2H]C1([2H])c2ncccc2C(=O)N1Cc1c(F)cc(-c2cccc3nn(C)cc23)cc1F [compound 3]	82.6	0.039	41.2	1.55	17.4	27.4
[2H]C1([2H])c2ncccc2C(=O)N1Cc1c(F)cc(-c2cccc3nn(C([2H])([2H])[2H])cc23)cc1F [compound 5]	92.3	0.044	34.2	1.3	8.8	27.5
